Results published in ChEMBL document CHEMBL1152560, “Substituted 2-arylbenzothiazoles as kinase inhibitors: hit-to-lead optimization” (Bioorg Med Chem, 2009).

Key:
[1] = molecular target: CDK1/Cyclin A (Homo sapiens) (UniProt P06493+P20248); test: Residual activity of CDK1/Cyclin A at 1 uM by microplate scintillation counting; type: protein-complex assay
[2] = molecular target: Serine/threonine-protein kinase MARK1 (Homo sapiens) (UniProt Q9P0L2); test: Residual activity of MARK1 at 0.1 uM by microplate scintillation counting
Chain of Serine/threonine-protein kinase MARK1 (Homo sapiens) (Q9P0L2 whole entry, looked up): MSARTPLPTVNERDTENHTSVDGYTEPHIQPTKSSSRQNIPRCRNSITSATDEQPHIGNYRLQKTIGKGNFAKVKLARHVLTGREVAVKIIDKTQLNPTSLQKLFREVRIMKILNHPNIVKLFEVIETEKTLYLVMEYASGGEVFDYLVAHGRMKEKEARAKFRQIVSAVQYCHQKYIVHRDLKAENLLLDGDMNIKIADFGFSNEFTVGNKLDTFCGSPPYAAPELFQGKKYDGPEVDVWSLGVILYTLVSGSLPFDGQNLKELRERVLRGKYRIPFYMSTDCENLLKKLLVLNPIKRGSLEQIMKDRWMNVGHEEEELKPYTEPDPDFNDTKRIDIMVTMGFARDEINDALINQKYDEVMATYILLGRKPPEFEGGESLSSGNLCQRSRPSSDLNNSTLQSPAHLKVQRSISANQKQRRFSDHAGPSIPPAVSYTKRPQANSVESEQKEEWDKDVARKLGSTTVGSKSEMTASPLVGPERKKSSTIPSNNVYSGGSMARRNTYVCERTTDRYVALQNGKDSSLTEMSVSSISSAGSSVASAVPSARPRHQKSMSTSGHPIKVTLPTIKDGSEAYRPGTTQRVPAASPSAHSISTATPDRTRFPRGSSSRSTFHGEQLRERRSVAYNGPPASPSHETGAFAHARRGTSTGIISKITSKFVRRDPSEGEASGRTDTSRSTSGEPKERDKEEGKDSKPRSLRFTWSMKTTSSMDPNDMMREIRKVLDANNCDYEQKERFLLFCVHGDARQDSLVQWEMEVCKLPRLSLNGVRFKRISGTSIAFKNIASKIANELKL

[3] = molecular target: G protein-coupled receptor kinase 4 (Homo sapiens) (UniProt P32298); test: Residual activity of GRK4 at 1 uM by microplate scintillation counting
Chain of G protein-coupled receptor kinase 4 (Homo sapiens) (P32298 whole entry, looked up): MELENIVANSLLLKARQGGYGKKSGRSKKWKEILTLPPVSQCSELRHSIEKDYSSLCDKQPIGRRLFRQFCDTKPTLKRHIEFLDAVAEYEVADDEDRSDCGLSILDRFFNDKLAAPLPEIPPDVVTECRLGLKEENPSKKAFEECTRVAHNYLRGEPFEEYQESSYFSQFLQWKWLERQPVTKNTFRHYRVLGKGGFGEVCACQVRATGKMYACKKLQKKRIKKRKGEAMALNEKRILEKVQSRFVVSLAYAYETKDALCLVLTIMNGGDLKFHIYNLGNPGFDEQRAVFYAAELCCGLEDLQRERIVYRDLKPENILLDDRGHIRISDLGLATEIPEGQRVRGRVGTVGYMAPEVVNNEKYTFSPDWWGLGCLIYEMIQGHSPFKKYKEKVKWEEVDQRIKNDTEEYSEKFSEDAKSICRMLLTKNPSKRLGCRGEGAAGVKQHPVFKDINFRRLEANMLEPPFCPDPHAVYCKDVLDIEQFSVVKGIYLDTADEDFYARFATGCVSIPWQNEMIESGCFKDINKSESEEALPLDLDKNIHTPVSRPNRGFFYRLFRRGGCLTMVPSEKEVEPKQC

[4] = molecular target: Serine/threonine-protein kinase Nek7 (Homo sapiens) (UniProt Q8TDX7); test: Residual activity of NEK7 at 1 uM by microplate scintillation counting
Chain of Serine/threonine-protein kinase Nek7 (Homo sapiens) (Q8TDX7 whole entry, looked up): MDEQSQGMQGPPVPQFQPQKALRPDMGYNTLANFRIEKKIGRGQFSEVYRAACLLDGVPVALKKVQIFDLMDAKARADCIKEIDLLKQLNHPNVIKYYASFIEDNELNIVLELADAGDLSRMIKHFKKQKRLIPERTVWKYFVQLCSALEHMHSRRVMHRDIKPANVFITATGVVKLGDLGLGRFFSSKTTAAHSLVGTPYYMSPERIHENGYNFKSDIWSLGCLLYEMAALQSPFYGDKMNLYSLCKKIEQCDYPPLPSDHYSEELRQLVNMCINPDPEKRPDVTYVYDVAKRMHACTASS

[5] = molecular target: T1, Megakaryocyte-associated tyrosine-protein kinase (Homo sapiens) (UniProt P42679); test: Residual activity of MATK at 1 uM by microplate scintillation counting
T1 sequence (whole entry): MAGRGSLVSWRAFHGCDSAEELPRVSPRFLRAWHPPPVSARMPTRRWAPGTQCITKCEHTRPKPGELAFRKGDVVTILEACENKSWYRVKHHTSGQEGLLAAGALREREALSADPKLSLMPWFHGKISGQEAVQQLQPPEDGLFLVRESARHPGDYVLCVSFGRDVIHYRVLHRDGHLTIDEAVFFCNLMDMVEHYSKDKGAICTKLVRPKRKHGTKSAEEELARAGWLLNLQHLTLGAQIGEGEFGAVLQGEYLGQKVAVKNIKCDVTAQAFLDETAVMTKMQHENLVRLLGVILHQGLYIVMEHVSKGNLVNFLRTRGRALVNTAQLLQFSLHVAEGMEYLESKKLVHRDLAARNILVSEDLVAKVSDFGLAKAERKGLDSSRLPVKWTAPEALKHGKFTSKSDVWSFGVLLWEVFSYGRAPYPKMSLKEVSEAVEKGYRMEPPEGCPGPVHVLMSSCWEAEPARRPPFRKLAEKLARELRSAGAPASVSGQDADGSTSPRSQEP

[6] = molecular target: Focal adhesion kinase 1 (Homo sapiens) (UniProt Q05397); test: Residual activity of FAK at 0.1 uM by microplate scintillation counting
Chain of Focal adhesion kinase 1 (Homo sapiens) (Q05397 2-1052 limits assumed): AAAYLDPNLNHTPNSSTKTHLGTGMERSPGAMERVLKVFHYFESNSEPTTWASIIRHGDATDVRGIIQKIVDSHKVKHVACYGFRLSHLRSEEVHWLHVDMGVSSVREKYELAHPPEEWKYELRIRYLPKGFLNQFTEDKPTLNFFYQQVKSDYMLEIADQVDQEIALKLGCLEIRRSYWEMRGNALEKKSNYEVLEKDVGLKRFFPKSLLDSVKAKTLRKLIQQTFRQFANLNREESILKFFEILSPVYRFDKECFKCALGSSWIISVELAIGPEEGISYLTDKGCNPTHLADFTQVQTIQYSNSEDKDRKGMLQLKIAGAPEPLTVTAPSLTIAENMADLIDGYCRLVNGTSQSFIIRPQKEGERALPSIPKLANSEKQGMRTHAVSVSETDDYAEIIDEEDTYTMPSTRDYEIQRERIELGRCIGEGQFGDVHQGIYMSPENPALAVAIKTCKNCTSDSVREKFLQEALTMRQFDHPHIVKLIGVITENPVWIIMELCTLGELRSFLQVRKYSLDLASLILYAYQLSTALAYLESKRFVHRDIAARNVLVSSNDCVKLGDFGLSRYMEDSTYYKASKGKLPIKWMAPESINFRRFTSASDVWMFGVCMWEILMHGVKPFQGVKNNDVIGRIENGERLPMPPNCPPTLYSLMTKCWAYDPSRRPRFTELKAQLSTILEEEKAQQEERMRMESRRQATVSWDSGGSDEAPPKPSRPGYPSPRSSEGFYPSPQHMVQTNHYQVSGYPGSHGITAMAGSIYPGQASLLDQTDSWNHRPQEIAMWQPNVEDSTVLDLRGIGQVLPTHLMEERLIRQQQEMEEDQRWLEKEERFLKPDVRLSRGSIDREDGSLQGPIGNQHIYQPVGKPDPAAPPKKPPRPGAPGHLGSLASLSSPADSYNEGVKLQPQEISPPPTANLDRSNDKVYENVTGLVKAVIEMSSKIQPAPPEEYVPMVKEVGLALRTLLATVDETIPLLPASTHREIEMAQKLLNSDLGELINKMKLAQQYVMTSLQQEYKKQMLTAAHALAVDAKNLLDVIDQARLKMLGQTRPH

[7] = molecular target: Fibroblast growth factor receptor 1 (Homo sapiens) (UniProt P11362); test: Residual activity of wild type FGF-R1 at 0.1 uM by microplate scintillation counting
Chain of Fibroblast growth factor receptor 1 (Homo sapiens) (P11362 22-822 limits assumed): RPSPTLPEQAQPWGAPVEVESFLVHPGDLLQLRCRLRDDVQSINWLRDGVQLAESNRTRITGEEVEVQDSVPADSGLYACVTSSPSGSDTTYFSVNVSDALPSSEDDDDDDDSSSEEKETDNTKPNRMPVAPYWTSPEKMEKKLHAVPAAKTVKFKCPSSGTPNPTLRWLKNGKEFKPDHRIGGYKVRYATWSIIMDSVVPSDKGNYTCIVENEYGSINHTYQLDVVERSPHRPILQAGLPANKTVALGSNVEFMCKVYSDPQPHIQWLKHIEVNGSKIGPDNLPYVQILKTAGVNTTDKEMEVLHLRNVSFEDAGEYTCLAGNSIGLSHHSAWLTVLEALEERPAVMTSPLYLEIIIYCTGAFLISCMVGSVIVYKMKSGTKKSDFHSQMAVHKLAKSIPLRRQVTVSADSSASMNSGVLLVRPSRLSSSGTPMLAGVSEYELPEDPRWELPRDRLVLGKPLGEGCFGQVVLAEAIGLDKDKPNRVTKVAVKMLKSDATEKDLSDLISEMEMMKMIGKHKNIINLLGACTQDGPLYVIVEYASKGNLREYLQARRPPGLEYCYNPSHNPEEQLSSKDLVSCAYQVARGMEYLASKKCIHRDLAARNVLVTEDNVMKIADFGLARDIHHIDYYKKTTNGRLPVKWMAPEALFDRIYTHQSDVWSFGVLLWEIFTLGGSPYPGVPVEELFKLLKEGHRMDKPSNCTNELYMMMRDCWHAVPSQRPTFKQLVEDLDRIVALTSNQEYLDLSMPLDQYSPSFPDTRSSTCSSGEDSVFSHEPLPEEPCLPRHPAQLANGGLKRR

[8] = molecular target: T2, TGF-beta receptor type-1 (Homo sapiens) (UniProt P36897); test: Residual activity of TGFB-R1 at 0.1 uM by microplate scintillation counting
T2 sequence (whole entry): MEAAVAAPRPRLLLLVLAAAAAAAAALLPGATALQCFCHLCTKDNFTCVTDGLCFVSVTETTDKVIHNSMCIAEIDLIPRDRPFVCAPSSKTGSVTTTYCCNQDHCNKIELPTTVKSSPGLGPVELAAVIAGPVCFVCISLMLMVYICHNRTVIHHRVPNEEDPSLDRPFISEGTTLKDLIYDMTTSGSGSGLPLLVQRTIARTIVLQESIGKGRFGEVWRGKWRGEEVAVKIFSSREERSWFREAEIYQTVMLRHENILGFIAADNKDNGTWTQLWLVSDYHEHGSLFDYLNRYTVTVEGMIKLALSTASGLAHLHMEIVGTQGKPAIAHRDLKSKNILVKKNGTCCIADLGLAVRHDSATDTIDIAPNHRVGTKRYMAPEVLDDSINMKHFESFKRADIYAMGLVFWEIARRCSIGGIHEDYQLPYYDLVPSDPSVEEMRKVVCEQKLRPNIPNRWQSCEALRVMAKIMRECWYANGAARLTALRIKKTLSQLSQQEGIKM

[9] = molecular target: T3, cAMP-dependent protein kinase catalytic subunit PRKX (Homo sapiens) (UniProt P51817); test: Residual activity of PRKX at 10 uM by microplate scintillation counting
T3 sequence (whole entry): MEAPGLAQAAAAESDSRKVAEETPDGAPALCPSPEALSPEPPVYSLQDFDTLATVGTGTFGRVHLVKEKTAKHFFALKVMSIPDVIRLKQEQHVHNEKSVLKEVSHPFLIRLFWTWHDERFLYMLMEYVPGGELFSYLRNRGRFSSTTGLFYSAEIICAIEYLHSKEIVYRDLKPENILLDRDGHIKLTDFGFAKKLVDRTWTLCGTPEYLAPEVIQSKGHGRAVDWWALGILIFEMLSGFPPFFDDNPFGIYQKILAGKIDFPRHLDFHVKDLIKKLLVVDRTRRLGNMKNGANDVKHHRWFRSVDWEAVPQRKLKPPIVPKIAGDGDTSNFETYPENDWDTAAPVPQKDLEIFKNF

[10] = system: Epidermal growth factor receptor (Homo sapiens), P00533 [L858R,T790M]; test: Residual activity of EGFR T790M/L858R mutant at 10 uM by microplate scintillation counting
[11] = molecular target: MAP/microtubule affinity-regulating kinase 3 (Homo sapiens) (UniProt P27448); test: Residual activity of MARK3 at 0.1 uM by microplate scintillation counting
Chain of MAP/microtubule affinity-regulating kinase 3 (Homo sapiens) (P27448 whole entry, looked up): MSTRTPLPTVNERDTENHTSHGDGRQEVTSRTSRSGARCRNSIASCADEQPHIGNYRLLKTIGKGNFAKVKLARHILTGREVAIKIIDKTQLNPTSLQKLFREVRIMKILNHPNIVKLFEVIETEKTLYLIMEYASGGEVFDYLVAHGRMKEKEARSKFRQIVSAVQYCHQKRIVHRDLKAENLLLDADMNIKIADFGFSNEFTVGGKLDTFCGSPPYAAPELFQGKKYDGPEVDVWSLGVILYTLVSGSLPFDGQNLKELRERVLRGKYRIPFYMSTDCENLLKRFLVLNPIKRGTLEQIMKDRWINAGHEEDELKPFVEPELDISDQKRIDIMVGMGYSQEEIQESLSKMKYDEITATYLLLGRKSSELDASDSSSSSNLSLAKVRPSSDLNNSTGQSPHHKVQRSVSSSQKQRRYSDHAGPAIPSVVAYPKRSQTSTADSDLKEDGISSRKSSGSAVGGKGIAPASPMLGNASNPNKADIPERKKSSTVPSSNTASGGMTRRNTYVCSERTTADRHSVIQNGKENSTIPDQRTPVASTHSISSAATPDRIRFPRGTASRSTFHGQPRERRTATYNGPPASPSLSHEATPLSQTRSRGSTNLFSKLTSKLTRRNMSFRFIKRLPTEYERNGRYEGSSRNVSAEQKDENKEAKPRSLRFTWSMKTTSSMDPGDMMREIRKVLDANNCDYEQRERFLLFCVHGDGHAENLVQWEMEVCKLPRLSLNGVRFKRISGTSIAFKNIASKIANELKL

[12] = molecular target: T4, Serine/threonine-protein kinase PLK4 (Homo sapiens) (UniProt O00444); test: Residual activity of SAK at 10 uM by microplate scintillation counting
T4 sequence (whole entry): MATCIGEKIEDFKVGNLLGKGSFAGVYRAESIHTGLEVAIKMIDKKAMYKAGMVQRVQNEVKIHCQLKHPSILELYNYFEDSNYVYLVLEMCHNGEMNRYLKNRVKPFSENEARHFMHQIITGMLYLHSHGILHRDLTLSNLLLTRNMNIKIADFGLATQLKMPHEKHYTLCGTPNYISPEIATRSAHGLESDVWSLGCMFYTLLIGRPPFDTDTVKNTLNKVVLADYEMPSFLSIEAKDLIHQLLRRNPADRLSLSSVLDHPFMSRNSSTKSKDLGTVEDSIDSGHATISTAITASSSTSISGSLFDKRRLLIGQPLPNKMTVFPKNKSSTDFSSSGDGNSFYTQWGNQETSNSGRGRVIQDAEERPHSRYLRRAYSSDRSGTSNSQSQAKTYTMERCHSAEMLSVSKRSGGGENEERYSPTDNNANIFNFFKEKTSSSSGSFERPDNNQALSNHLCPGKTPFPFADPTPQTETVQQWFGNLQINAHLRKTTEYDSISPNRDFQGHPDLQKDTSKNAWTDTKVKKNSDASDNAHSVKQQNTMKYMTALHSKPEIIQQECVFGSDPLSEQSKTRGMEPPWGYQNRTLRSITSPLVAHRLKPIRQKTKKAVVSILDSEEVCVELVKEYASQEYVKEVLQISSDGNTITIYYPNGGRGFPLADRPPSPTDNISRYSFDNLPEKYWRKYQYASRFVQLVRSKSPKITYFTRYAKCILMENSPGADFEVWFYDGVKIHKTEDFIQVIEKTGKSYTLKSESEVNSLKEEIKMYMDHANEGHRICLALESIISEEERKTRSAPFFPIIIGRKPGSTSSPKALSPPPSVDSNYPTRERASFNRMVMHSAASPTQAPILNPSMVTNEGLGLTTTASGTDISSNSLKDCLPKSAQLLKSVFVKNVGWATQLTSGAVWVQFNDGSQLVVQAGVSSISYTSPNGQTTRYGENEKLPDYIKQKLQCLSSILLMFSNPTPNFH

Chain of CDK1/Cyclin A (Homo sapiens) (P06493 whole entry, looked up): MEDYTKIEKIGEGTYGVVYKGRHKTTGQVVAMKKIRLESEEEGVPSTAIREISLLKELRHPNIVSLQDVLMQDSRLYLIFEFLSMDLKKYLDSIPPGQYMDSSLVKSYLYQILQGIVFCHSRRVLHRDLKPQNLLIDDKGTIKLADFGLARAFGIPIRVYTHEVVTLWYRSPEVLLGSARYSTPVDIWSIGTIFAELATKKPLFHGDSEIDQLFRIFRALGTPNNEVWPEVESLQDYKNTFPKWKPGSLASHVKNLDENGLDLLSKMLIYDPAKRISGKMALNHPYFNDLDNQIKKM
Chain of CDK1/Cyclin A (Homo sapiens) (P20248 whole entry, looked up): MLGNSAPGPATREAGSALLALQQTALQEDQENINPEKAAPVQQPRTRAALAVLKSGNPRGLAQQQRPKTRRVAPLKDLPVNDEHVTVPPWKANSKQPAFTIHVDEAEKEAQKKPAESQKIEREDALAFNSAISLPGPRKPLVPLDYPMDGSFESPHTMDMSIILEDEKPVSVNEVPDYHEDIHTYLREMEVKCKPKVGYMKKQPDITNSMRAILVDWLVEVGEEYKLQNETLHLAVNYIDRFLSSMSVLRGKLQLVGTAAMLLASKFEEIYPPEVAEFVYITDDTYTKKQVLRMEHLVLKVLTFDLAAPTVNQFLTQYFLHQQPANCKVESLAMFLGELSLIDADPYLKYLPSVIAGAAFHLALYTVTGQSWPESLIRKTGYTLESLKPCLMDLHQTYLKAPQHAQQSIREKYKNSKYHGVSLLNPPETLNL

residual activity [1] [%]	residual activity [2] [%]	residual activity [3] [%]	residual activity [4] [%]	residual activity [5] [%]	residual activity [6] [%]	residual activity [7] [%]	residual activity [8] [%]	residual activity [9] [%]	residual activity [10] [%]	residual activity [11] [%]	residual activity [12] [%]	Compound
111	90	97	104	235	99	101	90	86	147	84	1	COc1cc2c(Oc3ccc(-c4nc5ccccc5s4)cc3)ncnc2cc1OCCCN1CCCC1
101	98	94	95	141	94	103	102	86	167	92	1	COc1cc2c(Oc3ccc(-c4nc5ccccc5s4)cc3)ncnc2cc1OCCCN1CCN(C)CC1
102	91	106	103	162	98	95	96	94	70	87	1	COc1cc2c(Oc3ccc(-c4nc5ccccc5s4)cc3F)ncnc2cc1OCCCN1CCN(C)CC1
